Measured values reported in PubChem BioAssay AID651650 (Sanford-Burnham Center for Chemical Genomics, 2012).
Calls of active or inactive are those of the source.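 Rule for the calls: active = mean IC50 below 20 µM in each of the two panels, so potent in both; inactive = the rest.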

biological target: Neuropilin-1 (Homo sapiens) (UniProt O14786); assay: blockers of CendR peptide binding to NRP-1 – biochemical, FP and AlphaScreen panel, dose response (AID 651650); details: NRP-1 b1b2 / RPARPAR peptide binding, FP or AlphaScreen; AlphaScreen, mean of runs
Sequence (O14786 whole entry, looked up): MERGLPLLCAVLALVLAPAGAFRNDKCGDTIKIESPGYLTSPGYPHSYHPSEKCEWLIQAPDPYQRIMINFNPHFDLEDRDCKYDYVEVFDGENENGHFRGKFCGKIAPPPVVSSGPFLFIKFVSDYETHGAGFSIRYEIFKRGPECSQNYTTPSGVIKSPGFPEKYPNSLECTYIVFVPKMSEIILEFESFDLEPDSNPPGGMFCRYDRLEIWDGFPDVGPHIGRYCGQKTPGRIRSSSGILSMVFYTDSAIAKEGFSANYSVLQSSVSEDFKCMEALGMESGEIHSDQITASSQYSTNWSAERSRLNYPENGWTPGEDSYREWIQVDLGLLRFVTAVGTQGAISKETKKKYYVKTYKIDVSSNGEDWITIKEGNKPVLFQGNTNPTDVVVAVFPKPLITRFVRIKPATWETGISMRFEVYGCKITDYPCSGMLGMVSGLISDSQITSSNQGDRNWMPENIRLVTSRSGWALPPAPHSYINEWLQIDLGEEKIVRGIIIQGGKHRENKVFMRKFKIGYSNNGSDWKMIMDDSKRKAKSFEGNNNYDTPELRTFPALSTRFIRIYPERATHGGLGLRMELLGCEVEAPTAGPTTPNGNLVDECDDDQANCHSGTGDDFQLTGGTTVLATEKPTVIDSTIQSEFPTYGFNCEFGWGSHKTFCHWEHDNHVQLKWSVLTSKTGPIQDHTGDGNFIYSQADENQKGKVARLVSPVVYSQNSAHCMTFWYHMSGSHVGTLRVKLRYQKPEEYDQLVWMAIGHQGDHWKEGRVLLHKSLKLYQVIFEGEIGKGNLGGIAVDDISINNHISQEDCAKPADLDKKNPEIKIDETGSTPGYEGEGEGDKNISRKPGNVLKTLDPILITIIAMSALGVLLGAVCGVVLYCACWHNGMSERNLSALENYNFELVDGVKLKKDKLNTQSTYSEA

**Q.** How did the IC50 turn out when CCn1c(SCC(=O)c2ccccc2)nnc1-c1cccs1 was run?
**A.** The IC50 was “inactive”.

**Q.** With CCN(c1ccccc1)S(=O)(=O)c1ccc(C(=O)N(CCCN(C)C)c2nc3cc4c(cc3s2)OCO4)cc1 as the molecule, how does the IC50 read?
**A.** The IC50 was “inactive”.

**Q.** O=C(/C=C/c1ccco1)N/C(=C\c1ccccc1)C(=O)NCCc1nc2ccccc2[nH]1 was tested. Which IC50 did it give?
**A.** Its IC50 is > 100 µM (inactive).

**Q.** With Cc1ccccc1/C=C/c1nc2ccccc2c(=O)n1CCc1ccccc1 as the molecule, how does the IC50 read?
**A.** Its IC50 is > 100 µM (inactive).

**Q.** For Cc1nn(-c2ccccc2)c(C)c1C(=O)OCC(=O)Nc1ccccc1, which IC50 is on record?
**A.** Its IC50 is > 100 µM (inactive).

**Q.** CCOC(=O)Cc1csc(NC(=O)CSc2ncnc3c2cnn3-c2ccccc2Cl)n1 was tested. Which IC50 did it give?
**A.** The IC50 was > 100 µM (inactive).

**Q.** With COC(=O)N[C@@H]1C[C@H]2[C@@H]3CC[C@H]4C[C@@H](OC)CC[C@]4(C)[C@H]3CC[C@]12C as the molecule, how does the IC50 read?
**A.** The IC50 was “inactive”.

**Q.** Which IC50 does the source give for Cc1ccc(NC(=S)Nc2cccc3ccccc23)cc1 here?
**A.** The IC50 was > 100 µM (inactive).

**Q.** With Cc1cccc(NC(=O)c2ccc(OCc3c(C)noc3C)cc2)c1 as the molecule, how does the IC50 read?
**A.** The IC50 was 17.8 µM.

**Q.** Which IC50 does the source give for O=C(NCCCN1CCCCCC1)c1ccc(CS(=O)(=O)Cc2ccccc2F)o1 here?
**A.** The IC50 was > 100 µM (inactive).

**Q.** CC(Oc1ccccc1)C(=O)NC1=NCCS1 (stereo not given) was tested. Which IC50 did it give?
**A.** The IC50 was > 100 µM (inactive).

**Q.** With COc1ccc(C(=O)COC(=O)C(CCSC)NS(=O)(=O)c2ccc(Cl)cc2)cc1 (stereo not given) as the molecule, how does the IC50 read?
**A.** Its IC50 is > 100 µM (inactive).

**Q.** CCN(CCCNC(=O)CNC(=O)c1nn(-c2ccc(OC)cc2OC)c(=O)c2ccccc12)c1cccc(C)c1 was tested. Which IC50 did it give?
**A.** The IC50 was > 100 µM (inactive).

**Q.** CC(C)(C)C(=O)COC(=O)c1cc(-c2ccncc2)nc2ccccc12 was tested. Which IC50 did it give?
**A.** Its IC50 is > 100 µM (inactive).

**Q.** For C[C@@H](NC(=O)c1nc[nH]c1C(=O)NCc1ccccc1)c1ccccc1, which IC50 is on record?
**A.** The IC50 was > 100 µM (inactive).

**Q.** Which IC50 does the source give for O=C(CSc1nc2ccc(Cl)cc2[nH]1)NCCc1ccccc1 here?
**A.** Its IC50 is > 100 µM (inactive).

**Q.** How did the IC50 turn out when O=c1ccsn1Cc1ccccc1 was run?
**A.** The IC50 was > 100 µM (inactive).

**Q.** CCCN=C1N/C(=C\c2ccco2)C(=O)N1c1ccccc1 was tested. Which IC50 did it give?
**A.** The IC50 was > 100 µM (inactive).

**Q.** CCOc1cc(C(=O)NCCN2CCOCC2)cc(OCC)c1OCC was tested. Which IC50 did it give?
**A.** The IC50 was > 100 µM (inactive).

**Q.** With COc1ccc(CN2C(=O)c3ccccc3C2=O)cc1C(=O)Nc1ccccc1N1CCOCC1 as the molecule, how does the IC50 read?
**A.** Its IC50 is > 100 µM (inactive).

**Q.** With NC(=O)C(c1ccc(Cl)cc1Cl)c1ncc(C(F)(F)F)cc1Cl (stereo not given) as the molecule, how does the IC50 read?
**A.** Its IC50 is > 100 µM (inactive).

**Q.** Cc1ccc(NC(=O)COc2ncnc3c(Cl)cc(Cl)cc23)cc1[N+](=O)[O-] was tested. Which IC50 did it give?
**A.** The IC50 was > 100 µM (inactive).

**Q.** With COc1cc(OC)nc(NC(=O)COC(=O)c2cccc(Cl)c2)n1 as the molecule, how does the IC50 read?
**A.** Its IC50 is “inactive”.

**Q.** With Cn1cccc1C1Nc2ccccc2NC2=C1C(=O)CC(C)(C)C2 (stereo not given) as the molecule, how does the IC50 read?
**A.** Its IC50 is > 100 µM (inactive).

**Q.** Which IC50 does the source give for c1cc(CNc2ccc3c(c2)OCO3)ccn1 here?
**A.** Its IC50 is > 100 µM (inactive).

**Q.** How did the IC50 turn out when CCOc1ccc(S(=O)(=O)N2CCN(C(=O)c3sccc3C)CC2)cc1 was run?
**A.** The IC50 was 14.5 µM.

**Q.** Which IC50 does the source give for COC(=O)Cc1ccc(NC(=S)NCCCO)cc1 here?
**A.** The IC50 was > 100 µM (inactive).

**Q.** For O=C(COc1cc(Cl)c(Cl)cc1Cl)Nc1ccc([N+](=O)[O-])cc1Cl, which IC50 is on record?
**A.** The IC50 was > 100 µM (inactive).

**Q.** For C=C1C[C@@]23CCC4[C@@](C)(CCC[C@@]4(C)C(=O)O)C2CC[C@]1(O)C3 (stereo not given in full), which IC50 is on record?
**A.** Its IC50 is > 100 µM (inactive).

**Q.** For O=C(c1ccco1)N1CCN(C(=O)c2ccccc2OC(=O)C23CC4CC(CC(C4)C2)C3)CC1, which IC50 is on record?
**A.** Its IC50 is 0.965 µM.

**Q.** CCC1=C(OC(=O)N(CC)CC)N2C(=O)OC(=NCC3CC3)[C@]2(Cc2ccccc2)[C@H]2C1=CC[C@H]1C(=O)N(C)C(=O)[C@H]12 was tested. Which IC50 did it give?
**A.** The IC50 was > 100 µM (inactive).

**Q.** CCOc1ccc(C2CC(c3ccc(CC)cc3)n3nc(N)nc3N2)cc1 (stereo not given) was tested. Which IC50 did it give?
**A.** Its IC50 is > 100 µM (inactive).

**Q.** For CNC(=O)Nc1ccccc1C(=O)NCc1ccccc1, which IC50 is on record?
**A.** Its IC50 is > 100 µM (inactive).

**Q.** Cc1cc(=O)n2nc(N3CCCC(C(=O)N4CCOCC4)C3)sc2n1 (stereo not given) was tested. Which IC50 did it give?
**A.** Its IC50 is > 100 µM (inactive).

**Q.** For CC(C)Cc1ccc(C(C)C(=O)Nc2ccc(O)cc2)cc1 (stereo not given), which IC50 is on record?
**A.** Its IC50 is > 100 µM (inactive).

**Q.** With CCOC(=O)/C=C/COc1ccccc1[N+](=O)[O-] as the molecule, how does the IC50 read?
**A.** Its IC50 is > 100 µM (inactive).

**Q.** COc1ccc(C(=O)N2CCC(C(=O)NCc3ccccn3)CC2)cc1 was tested. Which IC50 did it give?
**A.** The IC50 was > 100 µM (inactive).

**Q.** How did the IC50 turn out when O=C(CSc1nc2ccccc2n1Cc1ccccc1Cl)N/N=C/c1ccccc1C(=O)O was run?
**A.** The IC50 was “inactive”.

**Q.** Cc1ccc(C(=O)OCC(=O)c2ccc(Cl)s2)s1 was tested. Which IC50 did it give?
**A.** The IC50 was > 100 µM (inactive).

**Q.** For CCOC(=O)C1CCN(Cc2ccc3ccccc3c2)CC1, which IC50 is on record?
**A.** Its IC50 is > 100 µM (inactive).

**Q.** With CC(C)Oc1ccc(F)cc1-c1cc(C(=O)NCc2ccc(F)cc2)[nH]n1 as the molecule, how does the IC50 read?
**A.** The IC50 was > 100 µM (inactive).

**Q.** Which IC50 does the source give for CC1(C)S[C@@H]2[C@H](NC(=O)COc3ccccc3)C(=O)N2C1C(=O)OCc1ccccc1 (stereo not given in full) here?
**A.** Its IC50 is > 100 µM (inactive).

**Q.** For CC(=O)OC1CC[C@]2(C#N)[C@H]3CC[C@]4(C)[C@H](C5C=CC(=O)O5)CCC4(O)C3CCC2(O)C1 (stereo not given in full), which IC50 is on record?
**A.** Its IC50 is > 100 µM (inactive).

**Q.** Which IC50 does the source give for CCCCOc1ccc(C(=O)N/C(=C/C=C/c2ccccc2)C(=O)NCCCO)cc1 here?
**A.** Its IC50 is > 100 µM (inactive).

same assay, conditions: NRP-1 b1b2 / RPARPAR peptide binding, FP or AlphaScreen; AlphaScreen, run 1; individual panel run IC50

**Q.** How did the IC50 turn out when CCn1c(SCC(=O)c2ccccc2)nnc1-c1cccs1 was run?
**A.** Its IC50 is 95.3 µM.

**Q.** CCN(c1ccccc1)S(=O)(=O)c1ccc(C(=O)N(CCCN(C)C)c2nc3cc4c(cc3s2)OCO4)cc1 was tested. Which IC50 did it give?
**A.** The IC50 was 37.1 µM.

**Q.** O=C(/C=C/c1ccco1)N/C(=C\c1ccccc1)C(=O)NCCc1nc2ccccc2[nH]1 was tested. Which IC50 did it give?
**A.** The IC50 was greater than 100 µM.

**Q.** With Cc1ccccc1/C=C/c1nc2ccccc2c(=O)n1CCc1ccccc1 as the molecule, how does the IC50 read?
**A.** Its IC50 is greater than 100 µM.

**Q.** For Cc1nn(-c2ccccc2)c(C)c1C(=O)OCC(=O)Nc1ccccc1, which IC50 is on record?
**A.** Its IC50 is greater than 100 µM.

**Q.** CCOC(=O)Cc1csc(NC(=O)CSc2ncnc3c2cnn3-c2ccccc2Cl)n1 was tested. Which IC50 did it give?
**A.** The IC50 was greater than 100 µM.

**Q.** How did the IC50 turn out when COC(=O)N[C@@H]1C[C@H]2[C@@H]3CC[C@H]4C[C@@H](OC)CC[C@]4(C)[C@H]3CC[C@]12C was run?
**A.** The IC50 was 69.5 µM.

**Q.** Cc1ccc(NC(=S)Nc2cccc3ccccc23)cc1 was tested. Which IC50 did it give?
**A.** The IC50 was greater than 100 µM.

**Q.** With Cc1cccc(NC(=O)c2ccc(OCc3c(C)noc3C)cc2)c1 as the molecule, how does the IC50 read?
**A.** The IC50 was 17.8 µM.

**Q.** How did the IC50 turn out when O=C(NCCCN1CCCCCC1)c1ccc(CS(=O)(=O)Cc2ccccc2F)o1 was run?
**A.** Its IC50 is greater than 100 µM.

**Q.** CC(Oc1ccccc1)C(=O)NC1=NCCS1 (stereo not given) was tested. Which IC50 did it give?
**A.** The IC50 was greater than 100 µM.
